Literature values, collected in publication PMC11584006, “Structural characterization and AlphaFold modeling of human T cell receptor recognition of NRAS cancer neoantigens” (Science Advances, 2024).

System: T cells transduced with these TCRs
Details: for peptide concentration at which TCR-transduced T cells can be activated: APCs pulsed with peptide, wild-type tested at >1000-fold higher concentrations
Text: KRAS is the most highly mutated RAS isoform across cancers, accounting for ~85% of all RAS mutations with especially high frequencies in pancreatic and colorectal cancers ([12], [13]). However, NRAS mutations dominate in melanomas, with mutations at position 61 appearing in ~20% of patients ([14]). The two most frequent mutations are Q61K and Q61R ([15]). Mutant NRAS melanomas have more aggressive clinical features and poorer outcomes compared to nonmutant NRAS melanomas ([16]–[18]). […] This HLA-A*01:01–restricted TCR recognizes the NRAS^Q61K and NRAS^Q61R neoepitopes using gene segments TRDV1 and TRAJ27-1 for the α chain and TRBV27 and TRBJ2-5 for the β chain. […] Recombinant TCR and pMHC proteins were expressed by in vitro folding from bacterial inclusion bodies. Biotinylated wild-type NRAS–HLA-A1, NRAS ...

Sequence | peptide concentration at which TCR-transduced T cells can be activated | concentration of peptide required for recognition (peptide titrations), relative to NRAS^Q61K (peptide titrations, HLA-A*01:01)
ILDTAGREEY [NRAS^Q61R, NRAS^Q61R peptide ([…])] | subnanomolar | a higher concentration
ILDTAGKEEY [NRAS^Q61K, NRAS^Q61K peptide ([…]), residues 55 to 64] | subnanomolar | 
ILDTAGQEEY [wild-type NRAS peptide, reference compound] | do not respond | 
